Reference: ChEMBL document CHEMBL5252638, “Novel triphenylphosphonium amphiphilic conjugates of glycerolipid type: synthesis, cytotoxic and antibacterial activity, and targeted cancer cell delivery” (RSC Med Chem, 2023)

Tests used:
[1] = tested on: M-HeLa; assay: Cytotoxicity against human HelaM cells assessed as number of viable cells measured after 48 hrs by MTT based colorimetric assay; type: functional, cell-based
[2] = tested on: MCF7; assay: Cytotoxicity against human MCF7 cells assessed as number of viable cells measured after 48 hrs by MTT based colorimetric assay; type: functional, cell-based; settings: MCF7, 48 h
[3] = tested on: HuTu80; assay: Cytotoxicity against human HuTu80 cells assessed as number of viable cells measured after 48 hrs by MTT based colorimetric assay; type: functional, cell-based; settings: HuTu80, 48 h
[4] = tested on: PANC-1; assay: Cytotoxicity against human PANC-1 cells assessed as number of viable cells measured after 48 hrs by MTT based colorimetric assay; type: functional, cell-based; settings: PANC-1, 48 h
[5] = tested on: A549; assay: Cytotoxicity against human A549 cells assessed as number of viable cells measured after 48 hrs by MTT based colorimetric assay; type: functional, cell-based; settings: A549, 48 h
[6] = tested on: PC-3; assay: Cytotoxicity against human PC-3 cells assessed as number of viable cells measured after 48 hrs by MTT based colorimetric assay; type: functional, cell-based; settings: PC-3, 48 h
[7] = tested on: T98G; assay: Cytotoxicity against human T98G cells assessed as number of viable cells measured after 48 hrs by MTT based colorimetric assay; type: functional, cell-based
[8] = tested on: HepG2; assay: Cytotoxicity against human HepG2 cells assessed as number of viable cells measured after 48 hrs by MTT based colorimetric assay; type: functional, cell-based; settings: HepG2, 48 h
[9] = tested on: SK-OV-3; assay: Cytotoxicity against human SK-OV-3 cells assessed as number of viable cells measured after 48 hrs by MTT based colorimetric assay; type: functional, cell-based; settings: SK-OV-3, 48 h
[10] = tested on: DU-145; assay: Cytotoxicity against human DU-145 cells assessed as number of viable cells measured after 48 hrs by MTT based colorimetric assay; type: functional, cell-based; settings: DU-145, 48 h
[11] = Cytotoxicity against human WI-38 cells assessed as number of viable cells measured after 48 hrs by MTT based colorimetric assay; type: toxicity, cell-based
[12] = Cytotoxicity against human Chang liver cells assessed as number of viable cells measured after 48 hrs by MTT based colorimetric assay; type: toxicity, cell-based
[13] = Selectivity index, ratio of IC50 for human WI-38 cells to IC50 for human MCF7 cells; type: toxicity; settings: WI-38 cells and MCF7 cells, read-out: Ratio IC50
[14] = organism: Homo sapiens; assay: Selectivity index, ratio of IC50 for human WI-38 cells to IC50 for human HuTu80 cells
[15] = Selectivity index, ratio of IC50 for human WI-38 cells to IC50 for human PC-3 cells; type: toxicity; settings: WI-38 cells and PC-3 cells, read-out: Ratio IC50
[16] = Selectivity index, ratio of IC50 for human WI-38 cells to IC50 for human T98G cells; type: toxicity; settings: WI-38 cells and T98G cells, read-out: Ratio IC50
[17] = organism: Homo sapiens; assay: Selectivity index, ratio of IC50 for human WI-38 cells to IC50 for human DU-145 cells
[18] = tested on: HuTu80; assay: Induction of apoptosis in human HuTu80 cells assessed as viable cells at 1 uM incubated for 48 hrs by annexin V FITC/propidium iodide staining based flow cytometry analysis (reference value: 93.71%); type: functional; settings: read-out: Activity
[19] = tested on: HuTu80; assay: Induction of apoptosis in human HuTu80 cells assessed as viable cells at 2 uM incubated for 48 hrs by annexin V FITC/propidium iodide staining based flow cytometry analysis (reference value: 93.71%); type: functional; settings: read-out: Activity
[20] = tested on: HuTu80; assay: Induction of apoptosis in human HuTu80 cells assessed as early apoptotic cells at 1 uM incubated for 48 hrs by annexin V FITC/propidium iodide staining based flow cytometry analysis (reference value: 1.74%); type: functional
[21] = tested on: HuTu80; assay: Induction of apoptosis in human HuTu80 cells assessed as early apoptotic cells at 2 uM incubated for 48 hrs by annexin V FITC/propidium iodide staining based flow cytometry analysis (reference value: 1.74%); type: functional
[22] = tested on: HuTu80; assay: Induction of apoptosis in human HuTu80 cells assessed as late apoptotic cells at 1 uM incubated for 48 hrs by annexin V FITC/propidium iodide staining based flow cytometry analysis (reference value: 0.00%); type: functional
[23] = tested on: HuTu80; assay: Induction of apoptosis in human HuTu80 cells assessed as late apoptotic cells at 2 uM incubated for 48 hrs by annexin V FITC/propidium iodide staining based flow cytometry analysis (reference value: 0.00%); type: functional
[24] = tested on: HuTu80; assay: Induction of apoptosis in human HuTu80 cells assessed as necrotic cells at 1 uM incubated for 48 hrs by annexin V FITC/propidium iodide staining based flow cytometry analysis (reference value: 4.56%); type: functional
[25] = tested on: HuTu80; assay: Induction of apoptosis in human HuTu80 cells assessed as necrotic cells at 2 uM incubated for 48 hrs by annexin V FITC/propidium iodide staining based flow cytometry analysis (reference value: 4.56%); type: functional
[26] = tested on: HuTu80; assay: Induction of cell cycle arrest in human HuTu80 cells assessed as accumulation of cell at G1/G0 phase at 1 uM measured after 48 hrs by propidium iodide staining based analysis (reference value: 72%); type: functional
[27] = tested on: HuTu80; assay: Induction of cell cycle arrest in human HuTu80 cells assessed as accumulation of cell at G1/G0 phase at 2 uM measured after 48 hrs by propidium iodide staining based analysis (reference value: 72%); type: functional
[28] = tested on: HuTu80; assay: Induction of cell cycle arrest in human HuTu80 cells assessed as accumulation of cell at G2/M phase at 1 uM measured after 48 hrs by propidium iodide staining based analysis (reference value: 18.7%); type: functional
[29] = tested on: HuTu80; assay: Induction of cell cycle arrest in human HuTu80 cells assessed as accumulation of cell at G2/M phase at 2 uM measured after 48 hrs by propidium iodide staining based analysis (reference value: 18.7%); type: functional
[30] = tested on: HuTu80; assay: Induction of cell cycle arrest in human HuTu80 cells assessed as accumulation of cell at S phase at 1 uM measured after 48 hrs by propidium iodide staining based analysis (reference value: 8.1%); type: functional
[31] = tested on: HuTu80; assay: Induction of cell cycle arrest in human HuTu80 cells assessed as accumulation of cell at S phase at 2 uM measured after 48 hrs by propidium iodide staining based analysis (reference value: 8.1%); type: functional
[32] = tested on: HuTu80; assay: Induction of ROS production in human HuTu80 cells assessed as increase in fluorescence intensity at 5 uM measured after 48 hrs by flow cytometry based analysis (reference value: 380); type: functional
[33] = tested on: HuTu80; assay: Induction of ROS production in human HuTu80 cells assessed as increase in fluorescence intensity at 10 uM measured after 48 hrs by flow cytometry based analysis (reference value: 380); type: functional
[34] = tested on: HuTu80; assay: Induction of mitochondrial membrane potential loss in human HuTu80 cells assessed as J-monomer green fluorescence intensity at 5 uM incubated for 24 hrs by JC10 staining based flow cytometry method (reference value: 5.7%); type: functional
[35] = tested on: HuTu80; assay: Induction of mitochondrial membrane potential loss in human HuTu80 cells assessed as J-monomer green fluorescence intensity at 10 uM incubated for 24 hrs by JC10 staining based flow cytometry method (reference value: 5.7%); type: functional
[36] = tested on: HuTu80; assay: Induction of mitochondrial membrane potential loss in human HuTu80 cells assessed as J-aggregates red fluorescence intensity at 5 uM incubated for 24 hrs by JC10 staining based flow cytometry method (reference value: 94.4%); type: functional
[37] = tested on: HuTu80; assay: Induction of mitochondrial membrane potential loss in human HuTu80 cells assessed as J-aggregates red fluorescence intensity at 10 uM incubated for 24 hrs by JC10 staining based flow cytometry method (reference value: 94.4%); type: functional
[38] = tested on: Staphylococcus aureus; assay: Antimicrobial activity against Staphylococcus aureus ATCC 6538 P FDA 209P by serial microdilution method; type: functional
[39] = tested on: Bacillus cereus; assay: Antimicrobial activity against Bacillus cereus ATCC 10702 NCTC 8035 by serial microdilution method; type: functional
[40] = tested on: Enterococcus faecalis; assay: Antimicrobial activity against Enterococcus faecalis ATCC 29212 by serial microdilution method; type: functional
[41] = tested on: Staphylococcus aureus; assay: Bactericidal against Staphylococcus aureus ATCC 6538 P FDA 209P by serial microdilution method; type: functional
[42] = tested on: Bacillus cereus; assay: Bactericidal activity against Bacillus cereus ATCC 10702 NCTC 8035 by serial microdilution method; type: functional
[43] = organism: Homo sapiens; assay: Selectivity index, ratio of IC50 for human WI-38 cells to IC50 for human SK-OV-3 cells
[44] = tested on: Pseudomonas aeruginosa; assay: Antimicrobial activity against Pseudomonas aeruginosa ATCC 9027 by serial microdilution method; type: functional
[45] = organism: Homo sapiens; assay: Selectivity index, ratio of IC50 for human WI-38 cells to IC50 for human PANC-1 cells
[46] = Selectivity index, ratio of IC50 for human WI-38 cells to IC50 for human HepG2 cells; type: toxicity; settings: WI-38 cells and HepG2 cells, read-out: Ratio IC50
[47] = tested on: Escherichia coli; assay: Antimicrobial activity against Escherichia coli ATCC 25922 by serial microdilution method; type: functional
[48] = tested on: Enterococcus faecalis; assay: Bactericidal activity against Enterococcus faecalis ATCC 29212 by serial microdilution method; type: functional
[49] = tested on: Escherichia coli; assay: Bactericidal activity against Escherichia coli ATCC 25922 by serial microdilution method; type: functional
[50] = tested on: Pseudomonas aeruginosa; assay: Bactericidal against Pseudomonas aeruginosa ATCC 9027 by serial microdilution method; type: functional

Compound: C=C(C)[C@@H]1CC[C@]2(COC(=O)CCC(=O)OC(COC(=O)CCCCCCC/C=C\CCCCCCCC)COC(=O)CCCC[P+](c3ccccc3)(c3ccccc3)c3ccccc3)CC[C@]3(C)[C@H](CC[C@@H]4[C@@]5(C)CC[C@H](O)C(C)(C)[C@@H]5CC[C@]43C)[C@@H]12.[Br-] (stereo not given in full)
- IC50 [1]: 51 µM
- IC50 [2]: 16.4 µM
- IC50 [3]: 1.7 µM
- IC50 [4]: 35.7 µM
- IC50 [5]: 54.2 µM
- IC50 [6]: 32.3 µM
- IC50 [7]: 22 µM
- IC50 [8]: 60 µM
- IC50 [9]: 57 µM
- IC50 [10]: 15.5 µM
- IC50 at 48 h [11]: 36.3 µM
- IC50 at 48 h [12]: 11.2 µM
- selectivity ratio [13]: 2.2
- Ratio IC50 [14]: 21.4
- selectivity ratio [15]: 1.1
- selectivity ratio [16]: 1.7
- Ratio IC50 [17]: 2.3
- viability at 1 µM [18]: 76.1%
- viability at 2 µM [19]: 51%
- Activity [20]: 1.29%
- Activity [21]: 2.5%
- Activity [22]: 4.58%
- Activity [23]: 12%
- Activity [24]: 18.03%
- Activity [25]: 34.5%
- Activity [26]: 84%
- Activity [27]: 87%
- Activity [28]: 2.8%
- Activity [29]: 1.8%
- Activity [30]: 2.8%
- Activity [31]: 1.9%
- Flu intensity [32]: 500
- Flu intensity [33]: 840
- Activity [34]: 15.9%
- Activity [35]: 9.7%
- Activity [36]: 84.2%
- Activity [37]: 90.3%
- MIC [38]: 31.3 µM
- MIC [39]: 15.6 µM
- MIC [40]: 125 µM
- MBC [41]: 125 µM
- MBC [42]: 125 µM

Compound: CC(C)C1=CC2=CC[C@@H]3[C@](C)(CCC[C@@]3(C)C(=O)OCC(O)COC(=O)CCCC[P+](c3ccccc3)(c3ccccc3)c3ccccc3)[C@H]2CC1 (stereo not given in full)
- Ratio IC50 [43]: 1.7
- MIC [44]: 250 µM
- IC50 [1]: 27.3 µM
- IC50 [2]: 12.5 µM
- IC50 [3]: 2.2 µM
- IC50 [4]: 13.1 µM
- IC50 [5]: 26.2 µM
- IC50 [6]: 11 µM
- IC50 [7]: 9.8 µM
- IC50 [8]: 21.6 µM
- IC50 [9]: 14.4 µM
- IC50 [10]: 2.8 µM
- IC50 at 48 h [11]: 24.2 µM
- IC50 at 48 h [12]: 6 µM
- selectivity ratio [13]: 1.9
- Ratio IC50 [14]: 11
- Ratio IC50 [45]: 1.8
- selectivity ratio [15]: 2.2
- selectivity ratio [46]: 1.1
- Ratio IC50 [17]: 8.6
- MIC [38]: 31.3 µM
- MIC [39]: 3.9 µM
- MIC [40]: 7.8 µM
- MIC [47]: 250 µM
- MBC [41]: 250 µM
- MBC [48]: 250 µM
- MBC [49]: 500 µM
- MBC [50]: 500 µM
